Results taken from US11578056B2, “Solid forms comprising (S)-2-(2,6-dioxopiperidin-3-yl)-4-((2-fluoro-4-((3-morpholinoazetidin-1-yl)methyl)benzyl)amino)isoindoline-1,3-dione and salts thereof, and compositions comprising and methods of using the same” (Celgene Corporation, priority 2019, dated 2023).

Key:
Assay in all cases: Hematological cell line viability/apoptosis flow cytometry assay
Format in all cases: cell-based
[1] = system: OCI-LY19 cell line; conditions: OCI-LY19 (DLBCL GCB); 120 h
In short: (§1)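 384-well format; serial dilutions 0.00015–10 μM, DMSO 0.1% v/v, 5 days. Annexin V/DRAQ7 flow readout. Viability normalized to DMSO → IC50, Emax, AUC; apoptosis (early + late) vs DMSO → EC50, Ymax, AUC.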

[2] = system: Mec2 cell line; conditions: Mec2 (CLL), 120 h
In short: as §1

[3] = system: GDM-1 cell line; conditions: GDM-1 (AML); 120 h
In short: as §1

[4] = system: WILL-1 cell line; conditions: WILL-1 (DLBCL); 120 h
In short: as §1

[5] = system: SU-DHL-16 cell line; conditions: SU-DHL-16 (DLBCL GCB); 120 h
In short: as §1

[6] = system: OPM-2 cell line; conditions: OPM-2 (MM), 120 h
In short: as §1

[7] = system: KOPN-8 cell line; conditions: KOPN-8 (ALL), 120 h
In short: as §1

[8] = system: U-2932 cell line; conditions: U-2932 (DLBCL ABC); 120 h
In short: as §1

[9] = system: OCI-LY7 cell line; conditions: OCI-LY7 (DLBCL GCB); 120 h
In short: as §1

[10] = system: SU-DHL-2 cell line; conditions: SU-DHL-2 (DLBCL ABC); 120 h
In short: as §1

[11] = system: WA-OSEL cell line; conditions: WA-OSEL (CLL), 120 h
In short: as §1

[12] = system: Daudi cell line; conditions: Daudi (BL), 120 h
In short: as §1

[13] = system: TMD8 cell line; conditions: TMD8 (DLBCL ABC); 120 h
In short: as §1

[14] = system: RC-K8 cell line; conditions: RC-K8 (DLBCL ABC); 120 h
In short: as §1

[15] = Homo sapiens, read-out: % Viable Cells IC50

## O=C1CC[C@H](N2C(=O)c3cccc(NCc4ccc(CN5CC(N6CCOCC6)C5)cc4F)c3C2=O)C(=O)N1 [Compound 1, (S)-2-(2,6-dioxopiperidin-3-yl)-4-((2-fluoro-4-((3-morpholinoazetidin-1-yl)methyl)benzyl)amino)isoindoline-1,3-dione]
[1]
  % Viable Cells AUC: 72.49
  % Viable Cells Emax: 3.228%
  Apoptosis AUC: 706.2
  Apoptosis Ymax: 80.91%
[2]
  % Viable Cells AUC: 312.5
  % Viable Cells Emax: 25.55%
  Apoptosis AUC: 339.8
  Apoptosis Ymax: 35.28%
  EC50: 13.3 nM
[2]; read-out: % Viable Cells IC50
  IC50: 75.5 nM
[3]
  % Viable Cells AUC: 1455
  % Viable Cells Emax: 388.4%
  Apoptosis AUC: 696.9
  Apoptosis Ymax: 265%
[4]
  % Viable Cells AUC: 233.7
  % Viable Cells Emax: 4.216%
  Apoptosis AUC: 549.4
  Apoptosis Ymax: 79.51%
[5]
  % Viable Cells AUC: 149.7
  % Viable Cells Emax: 7.137%
  Apoptosis AUC: 492.6
  Apoptosis Ymax: 60.79%
[6]; Homo sapiens
  EC50: 1320 nM
[6]; [15]
  IC50: 0.3 nM
[6]
  % Viable Cells AUC: 210.5
  % Viable Cells Emax: 6.65%
  Apoptosis AUC: 212.6
  Apoptosis Ymax: 63.00%
[7]; Homo sapiens
  EC50: 726000 nM
[7]; [15]
  IC50: 41.8 nM
[7]
  % Viable Cells AUC: 490.2
  % Viable Cells Emax: 38.3%
  Apoptosis AUC: 14.95
  Apoptosis Ymax: 5.00%
[8]
  % Viable Cells AUC: 163.7
  % Viable Cells Emax: 12.8%
  Apoptosis AUC: 212.8
  Apoptosis Ymax: 25.81%
[9]
  % Viable Cells AUC: 48.18
  % Viable Cells Emax: 4.191%
  Apoptosis AUC: 682.7
  Apoptosis Ymax: 71.18%
[10]
  % Viable Cells AUC: 5.586
  % Viable Cells Emax: 0.2145%
  Apoptosis AUC: 928.4
  Apoptosis Ymax: 95.98%
[11]
  % Viable Cells AUC: 616.1
  % Viable Cells Emax: 54.42%
  Apoptosis AUC: 69.39
  Apoptosis Ymax: 7.38%
  EC50: 112 nM
[11]; read-out: % Viable Cells IC50
  IC50: > 10000 nM
[12]
  % Viable Cells AUC: 196.4
  % Viable Cells Emax: 0%
  Apoptosis AUC: 274
  Apoptosis Ymax: 84.0%
[12]; Homo sapiens
  EC50: 2320 nM
[12]; [15]
  IC50: 0.6 nM
[13]
  % Viable Cells AUC: 4.187
  % Viable Cells Emax: 0.245%
  Apoptosis AUC: 963.3
  Apoptosis Ymax: 97.2%
[14]
  % Viable Cells AUC: 115.7
  % Viable Cells Emax: 10.06%
  Apoptosis AUC: 349.2
  Apoptosis Ymax: 26.31%
